Test results reported in US11633392B2 (priority 2016, dated 2023).
pEC50: −log10 of the molar value. Marks after values point to notes of the source that are not given here.

Assays:
human opioid δ receptor = target: T1, human opioid δ receptor (Homo sapiens, UniProt P41143); test: Opioid receptor function test (Lance Ultra cAMP Kit), δ receptor; assay type: cell-based
T1 construct: host or cells: CHO cells
Method: (§1) Opioid Receptor Function Test
(§2) The functional activities of the compounds provided by the present invention on the μ, δ, and κ opioid receptors were investigated.
(§3) The test was performed by using Lance Ultra cAMP Kit (PerkinElmer) according to a method predetermined for the kit. In the evaluation of the agonistic activity, CHO cells expressing each of the human opioid receptors (δ, μ, and κ, accession numbers and catalog numbers are mentioned below) and 10 μM of each test compound were reacted for 30 minutes in an assay buffer (1× HBSS, […], pH 7.4, […] (isobutylmethylxanthine), 7.5% BSA) in the presence of forskolin. Subsequently, the cAMP detection reagent included in the kit was added, and 1 hour afterward, time-resolved fluorescence measurement was performed by using the EnVision plate reader (PerkinElmer). The test compounds and the control drugs (δ: SNC80, μ: DAMGO, κ: U-69593) were evaluated in a concentration range of 10^−12 to 10^−5 M, a dose-response curve of each test compound was obtained from the fluorescence values at 665 nm, and EC50 value and the Emax value were calculated. The Emax value was calculated as a ratio of the maximum reaction of the test compound to the maximum reaction of each control drug, which is taken as 100%.
(§4) • δ: Catalog No. CT4607, Accession No. NM_000911.2 • μ: Catalog No. CT4605, Accession No. NM_000914 • κ: Catalog No. CT4606, Accession No. NM_000912 (ChanTest Corporation)

C57BL/6N male mice = test: Mouse elevated plus maze test; assay type: in vivo; conditions: subcutaneous, 1 mg/kg, 30 minutes before test (FIG. 2)
Method: Mouse Elevated Plus Maze Test
For the test, 5 to 6 weeks old C57BL/6N male mice were used. On a plus maze apparatus consisting of a wall-less running route (open arm, width 6 cm, length 30 cm) and a running route with a wall (closed arm, width 6 cm, length 30 cm, height of wall 15 cm), and having a height of 40 cm, a mouse was put so as to be directed to the running route with a wall, and allowed to spontaneously enter into the plus maze. Each test substance was dissolved in saline or 0.005 N HCl in saline, and subcutaneously administered on the back 30 minutes before the start of the test. At the time of the start of the test, video recording with a video camera was started, the time at which the mouse entered into the plus maze is considered to be the start of the test, and exploratory behavior was recorded for 5 minutes. On the basis of the video image, staying times in the running routes were determined, and wall-less running route staying time ratio (%) was calculated.

human opioid κ receptor = target: T2, human opioid κ receptor (Homo sapiens, UniProt P41145); test: Opioid receptor function test (Lance Ultra cAMP Kit), κ receptor; assay type: cell-based; conditions: maximum reaction not reached; maximum concentration 10 μM; U-69593 = 100%
T2 construct: host or cells: CHO cells
T2 sequence (P41145 whole entry): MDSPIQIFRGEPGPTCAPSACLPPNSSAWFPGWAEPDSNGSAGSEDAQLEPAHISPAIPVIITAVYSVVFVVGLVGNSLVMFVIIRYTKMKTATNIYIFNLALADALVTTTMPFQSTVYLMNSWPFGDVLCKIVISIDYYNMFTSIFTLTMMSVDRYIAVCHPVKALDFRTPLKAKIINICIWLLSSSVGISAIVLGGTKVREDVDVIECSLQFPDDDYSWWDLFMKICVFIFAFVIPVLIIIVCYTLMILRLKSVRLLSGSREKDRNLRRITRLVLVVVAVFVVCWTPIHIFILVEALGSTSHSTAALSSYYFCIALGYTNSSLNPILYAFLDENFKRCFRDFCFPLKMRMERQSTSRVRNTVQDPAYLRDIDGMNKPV
Method: as §1, §2, §3, §4

[1] = tested on: olfactory bulbectomized (OBX) rat; test: Hyperemotional reaction inhibition test using olfactory bulbectomized (OBX) rat; assay type: in vivo; conditions: for hyperemotional reactions of the OBX rats compared with the solvent administration group: maintained until day 14
From the text: Hyperemotional Reaction Inhibition Test Using Olfactory Bulbectomized (OBX) Rat
According to the method of Saitoh et al. (Saitoh A, Yamada M, Yamada M, Takahashi K, Yamaguchi K, Murasawa H, Nakatani A, Tatsumi Y, Hirose N, and Kamei J: Antidepressant-like effects of the delta-opioid receptor agonist SNC80 ((+)-4-[(alphaR)-alpha-[(2S,5R)-2,5-dimethyl-4-(2-propenyl)-1-piperazinyl]-(3-methoxyphenyl)methyl]-N,N-diethylbenzamide) in an olfactory bulbectomized rat model, Brain Res., 2008, 1208:160-169), OBX rats were prepared by extracting the rat olfactory bulbs, and then breeding the rats in an isolated circumstance. Hyperemotional reaction was evaluated on the day 14 after the surgical operation and before the division into groups, and 2 hours after the administration on the days 1, 4, 7, 10, and 14 of the administration period according to the hyperemotional reaction evaluation criteria prepared by Gomita et al. (Gomita et al., Behavioral pharmacological and electroencephalographical studies of 7-chloro-1-methyl-5-phenyl-1H-1,5-benzodiazepine-2,4-(3H,5H:)-dione (Clobazam), Folia Pharmacologica Japonica, 82, 267 (1983)). The drug was subcutaneously administered once a day continuously over 14 days. As a positive control drug, fluoxetine, which is a selective serotonin reuptake inhibitor (SSRI), was used. As the solvent, a 1% cyclodextrin (CD) was used.

T1 sequence (P41143 whole entry): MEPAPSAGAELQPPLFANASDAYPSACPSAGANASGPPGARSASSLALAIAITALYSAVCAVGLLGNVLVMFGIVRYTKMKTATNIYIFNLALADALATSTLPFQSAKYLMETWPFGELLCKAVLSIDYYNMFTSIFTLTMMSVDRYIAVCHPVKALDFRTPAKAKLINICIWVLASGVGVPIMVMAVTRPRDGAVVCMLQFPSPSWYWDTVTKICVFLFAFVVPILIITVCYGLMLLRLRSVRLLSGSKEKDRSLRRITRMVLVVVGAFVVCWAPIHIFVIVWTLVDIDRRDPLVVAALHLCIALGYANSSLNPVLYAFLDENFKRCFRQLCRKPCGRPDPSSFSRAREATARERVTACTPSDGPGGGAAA

O=C(c1cccc(=O)[nH]1)N1C[C@H]2C[C@@]34CC[C@@H]1[C@@H]2[C@@]31CCN(CC2CC2)[C@@H]4Cc2ccc(O)cc21 [Example 7, 6-((1S,3aR,5aS,6R,11bR,11cS)-14-(cyclopropylmethyl)-10-hydroxy-2,3,3a,4,5,6,7,11c-octahydro-1H-6,11b-(epiminoethano)-1,5a-methanonaphtho[1,2-e]indole-3-carbonyl)pyridin-2(1H)-one]
pEC50 (human opioid δ receptor; CHO cells expressing human δ receptor, cAMP, in the presence of forskolin): > 8.52
Emax (human opioid δ receptor; ratio to maximum reaction of control drug SNC80 taken as 100%): 99%
wall-less running route staying time ratio (C57BL/6N male mice): significantly increased
κ receptor reaction rate at the maximum concentration (reference value, marked *) (human opioid κ receptor): −0.9* %
hyperemotional reactions of the OBX rats compared with the solvent administration group ([1]; 0.1 mg/kg s.c. once a day, from the day 4 of the administration period): significantly reduced
hyperemotional reactions of the OBX rats relative to sham surgery group ([1]; 0.1 mg/kg s.c. once a day, on the day 7 of the administration period): restored the condition even to a level comparable to that of the rats of the sham surgery group
hyperemotional reactions of the OBX rats compared with the solvent administration group ([1]; 1 mg/kg s.c. once a day, from the day 1 of the administration period): significantly reduced
hyperemotional reactions of the OBX rats relative to sham surgery group ([1]; 1 mg/kg s.c. once a day, on the day 4 of the administration period): restored the condition even to a level comparable to that of the rats of the sham surgery group
